{"source": "patent US20170217982A1", "about": "“Compound isolated from Pseudolysimachion rotundum var. subintegrum, the composition comprising the same for treating allergic disease, inflammatory disease, asthma or chronic obstructive pulmonary disease and the use thereof” (YUNGJIN PHARMACEUTICAL CO., LTD, priority 2014, published 2017)", "key": {"[1]": {"tested_on": "H292 cell", "test": "Evaluation of cytotoxicity in H292 cell (CCK-8)", "format": "cell-based, human", "conditions": "for H292 cell viability (%, mean ± variation): 24 hours, CCK-8", "experimental": "In order to determine the cytotoxicity of inventive compound, following preliminary test was performed by the method disclosed in the literature (Shiyama et al., Talanta, 1997, 44, 1299-1305; Tominaga et al., Anal. Commun., 1999, 36, 47-50).\nHT1080 (CRL-12012), H292 (CRL-1848) and murine EL4 cells (TIB-39) were purchased from company (American Type Culture Collection).\nHT1080 (CRL-12012) and murine EL4 cells were cultured in DMEM medium (SB30243.01, Dulbecco's modified Eagle's medium; DMEM, HyClone) supplemented with 10% FBS (Fetal Bovine Serum; Gibco) and antibiotic (100 units/ml penicillin+100 units/ml streptomycin). H292 cell was cultured in RPMI medium (SH30027.01, RPMI 1640, Gibco) supplemented with 10% FBS and antibiotic. The cells were cultures under the condition of humidified 5% CO2 atmosphere at 37° C. PMA (P8139, Phorbol 12-myristate 13-acetate) was purchased from the company (Sigma Chemical Co., St. Louis, Mo.) and TNF-α is from the company (300-01A, PeproTech, NJ USA Inc.) to use in the experiment.\nH292 cell line, a human hung mucosal cancer cell line, was suspended in 10% FBS-supplemented RPMI medium in a concentration of 5×10^4 cells/ml, and 100 μl of the suspension was inoculated into 96 well plates to adhere cell to the plate for 12 hours. Various concentrations of test sample (KS 534 compound) were treated therewith and cultured for 24 hours. 10 μL of CCK-8 solution was mixed with 90 μL of the medium and 100 μL of solution was added to each well. After reacting from 30 mins to 4 hours, the absorbance of the solution was determined at 570 nm. The cell viability was calculated according to following Math formulae 1 based on negative control group treated with 0.2% DMSO and the result was shown in Table 2.\nCell viability (%)=OD 570 nm (test group)/OD 570 nm (negative control group)×100 Math formulae 1"}, "[2]": {"tested_on": "MUC5AC protein", "test": "Inhibition of MUC5AC protein secretion (modified ELISA) in H292 cells", "format": "cell-based, human", "conditions": "TNF-alpha 20 ng/ml", "experimental": "In order to determine the inhibitory effect on the reproduction of MUC5AC protein, following test was performed by the method disclosed in the literature (Sikder, M A. et al., Phytother. Res., 2014, 28, 62-68)\nFor the immunoassay on reproduced MUCSAC, 50 μL of collected supernatant in Experimental Example 3 was distributed to 96 well plate and dried in a thermostat at 50[…].\nAfter washing with 1% BSA added PBS solution, MUCSAC antibody (ab3649, abcam Co.) was added to react together at room temperature for 1 hour and then secondary antibody was added thereto to react together for 1 hour. After re-washing, 3,3′,5,5′-tetramethylbenzidine peroxide solution (54827-17-7, Sigma-aldrich) was added thereto to react together for 20 mins. After stopping the reaction by adding sulfuric acid solution, the absorbance was determined by VERSAmax microplate reader, (SMP500-14915, Molecular Devices, USA) at 450 nm (Sikder, M. A. et al., Phytother. Res., 2014, 28, 62-68; Takeyama, K. et al. Proc. Natl. Acad. Sci. U.S.A., 1999, 96, 3081-3086)."}}, "note": "Several values for one entry are separate records, joined by “and”; a condition that tells them apart may be missing. Equal entries are not always repeated.", "data": [{"smiles": "O=C(CO)O[C@@H]1O[C@@H]2C[C@H]3[C@H](OC(=O)c4ccc(O)c(O)c4)[C@@H](Cl)[C@@](O)(CO2)[C@@H]13", "note": "[KS-534, (3R,5S,5aS,6R,7S,8R,8aS)-8-chloro-8a-hydroxy-5-(2-hydroxyacetoxy) hexahydro-1H-3,6-methanocyclopenta[e][1,3]dioxepin-7-yl3,4-dihydroxybenzoate]", "values": [{"measurement": "H292 cell viability (%, mean ± variation)", "setting": "[1]; 2.5 μm", "result": "101.88 ± 3.71", "unit": "%"}, {"measurement": "H292 cell viability (%, mean ± variation)", "setting": "[1]; 5 μm", "result": "102.46 ± 3.96", "unit": "%"}, {"measurement": "H292 cell viability (%, mean ± variation)", "setting": "[1]; 10 μm", "result": "99.89 ± 4.79", "unit": "%"}, {"measurement": "H292 cell viability (%, mean ± variation)", "setting": "[1]; 20 μm", "result": "97.87 ± 2.92", "unit": "%"}, {"measurement": "cytotoxicity in H292 cell", "setting": "[1]; at less than 20 μm", "result": "did not show cytotoxicity"}, {"measurement": "Inhibitory ratio (%) of MUC5AC secretion", "setting": "[2]; 2.5 μm", "result": 6.62, "unit": "%"}, {"measurement": "MUC5AC secretion (relative % comparing with TNF-alpha treatment group)", "setting": "[2]; 2.5 μm", "result": "93.38% and 93.38 ± 0.90%"}, {"measurement": "Inhibitory ratio (%) of MUC5AC secretion", "setting": "[2]; 5 μm", "result": 21.73, "unit": "%"}, {"measurement": "MUC5AC secretion (relative % comparing with TNF-alpha treatment group)", "setting": "[2]; 5 μm", "result": "78.27% and 78.27 ± 2.16%"}, {"measurement": "Inhibitory ratio (%) of MUC5AC secretion", "setting": "[2]; 10 μm", "result": 35.23, "unit": "%"}, {"measurement": "MUC5AC secretion (relative % comparing with TNF-alpha treatment group)", "setting": "[2]; 10 μm", "result": "64.77% and 64.77 ± 1.56%"}]}]}
